# US20230141863A1, “Small Molecule Inhibitors Targeting the Sodium Channel Tamoxifen Receptor and Uses Thereof” (Northwestern University, priority 2021, published 2023)
# Read-outs that look alike come from different tables or passages of the source.
# How the values were obtained:
# Format in all cases: cell-based, mouse
# [1] = tested on: T1, endogenous voltage-gated sodium channels expressed in murine DRG neurons; assay: Whole cell voltage clamp of endogenous sodium currents (INa) in cultured DRG sensory neurons; details: −60 mV holding potential, read-out: ND-Tam potency against DRG INa (IC50)
# T1 construct: other: waiting for 5 minutes after removal; ND-Tam potency against DRG INa (IC50); other: DRG neurons, −60 mV holding potential; other: 3 μM ND-Tam treatment; other: DR
# [2] = tested on: T2, endogenous voltage-gated sodium channels expressed in murine DRG neurons; assay: as above; details: −40 mV holding potential, read-out: ND-Tam potency against DRG INa (IC50)
# T2 construct: other: DRG neurons, −40 mV holding potential
# DRG action potentials = assay: Current clamp recording of cultured DRG neuron action potentials; details: for IC50: Mus musculus, DRG neuron, 2-4 minutes of extracellular drug treatment
# Source text: FIG. 4. N-desmethyl tamoxifen inhibits DRG neuronal transmission. A) Exemplar action potentials recorded from an isolated DRG neuron in control and ND-Tam-treated conditions using a 1 second, 80 pA injection of current. After the experiment was complete, drug was washed out of the bath for five minutes and recovery from inhibition was retested. Consistent with previous reports, the resting membrane potential of the DRG neurons was −53.4±5 mV (Error is equal to S.D., n=109) (PMID: 8052416). B, C) The potency of ND-Tam inhibition on DRG action potential frequency and peak amplitude. Open symbols represent responses from individual cells while filled symbols represent average response per concentration. Error is equal to S.E.M. and the number of cells tested per treatment group is indicated within the parentheses. D, E) A comparison of the potency of cannabidiol (CBD) and carbamazepine (CBZ) inhibition on action potential frequency and peak amplitude. As done previously, drug concentration-INa inhibition relationships were fit to the Hill equation. Open symbols represent responses from individual cells while filled symbols represent average response per concentration. Error is equal to S.E.M. and the number of cells tested per treatment group is indicated within the parentheses.
# FIG. 10. N-desmethyl tamoxifen inhibits spontaneous action potentials in sensory neurons. A) Exemplar spontaneous action potentials, recorded from a DRG neuron without injecting current, inhibited by 100 nM N-desmethyl tamoxifen. B) Morphology of a single spontaneous action potential in DRG neuron C) Inhibition of spontaneous action potential frequency by 100 nM ND-Tam (P=0.04). Open symbols represent responses from individual cells and filled symbols represent the average response. Error is equal to S.E.M. from 6 spontaneously firing DRG neurons.
# DRG neurons act as a filter to electrical information from the periphery, required for the perception of pain, generated by several types of ion channels, including Navs. For that reason, the inventors compared the pharmacology of ND-Tam against cultured DRG action potentials recorded using current clamp (FIG. 4A). The inventors then compared DRG action potential frequency and amplitude before and after 2-4 minutes of extracellular drug treatment (FIG. 4A-C, FIG. 14). […] After exchanging the drug for control saline for 2 minutes, ND-Tam inhibition of action potential frequency and peak amplitude was persistent (FIG. 4A), which is consistent with the observed slow dissociation of the drug with sodium channels (FIG. 1B, D).
# Dorsal root ganglia were isolated using a modified version of the previously described protocol (PMID: 26864470). All animal procedures were approved by the Institutional Animal Care and Use Committee at the Feinberg Medical School, Northwestern University. The spinal columns of 4-6-week-old […] or Nav1.8-Tomato mice (Nav1.8-Td) were removed and DRG neurons from all spinal levels were isolated for primary culture (PMID: 33827672, PMID: 31351964). The collected DRGs, containing both neuronal and non-neuronal cells, were acutely dissociated in DMEM with collagenase IV (2 mg/mL) for 30 minutes, followed by papain (25 U/mL) for 30 minutes. The cells were then triturated, filtered through a 40 μm cell strainer to remove non-dissociated cells, and washed with DMEM. […]
smiles,measurement,setting,value
"CC/C(=C(\c1ccccc1)c1ccc(OCCNC)cc1)c1ccccc1 [ND-Tam, 2-[4-[(Z)-1,2-diphenylbut-1-enyl]phenoxy]-N-methylethanamine]",IC50,[1],112 nM
same,IC50,[2],3.9 nM
same,potency against action potential frequency and peak amplitude compared with CBZ and CBD (in words),DRG action potentials,more potent inhibitor of DRG action potential frequency and peak amplitude than CBZ and CBD
same,reduction of the frequency of spontaneous sensory neuron action potentials,"DRG action potentials; 100 nM, three-minute extracellular application, n=6, P=0.04",91%
same,IC50,"DRG action potentials; 80 pA of injected current, read-out: IC50 against action potential peak amplitude",1300 nM
same,IC50,"DRG action potentials; elicited by 80 pA of injected current, read-out: IC50 against action potential firing frequency",119 nM
same,inhibition of action potential frequency and peak amplitude after washout (in words),DRG action potentials; after exchanging the drug for control saline for 2 minutes,persistent
